Target: T1, human IKK-2 (rhIKK-2 homodimer) (Homo sapiens, UniProt O14920)
T1 construct: FLAG (DYKDDDDKD) (C); made in house; host or cells: insect cells (baculovirus, pFastBac)
T1 sequence (O14920 1-756): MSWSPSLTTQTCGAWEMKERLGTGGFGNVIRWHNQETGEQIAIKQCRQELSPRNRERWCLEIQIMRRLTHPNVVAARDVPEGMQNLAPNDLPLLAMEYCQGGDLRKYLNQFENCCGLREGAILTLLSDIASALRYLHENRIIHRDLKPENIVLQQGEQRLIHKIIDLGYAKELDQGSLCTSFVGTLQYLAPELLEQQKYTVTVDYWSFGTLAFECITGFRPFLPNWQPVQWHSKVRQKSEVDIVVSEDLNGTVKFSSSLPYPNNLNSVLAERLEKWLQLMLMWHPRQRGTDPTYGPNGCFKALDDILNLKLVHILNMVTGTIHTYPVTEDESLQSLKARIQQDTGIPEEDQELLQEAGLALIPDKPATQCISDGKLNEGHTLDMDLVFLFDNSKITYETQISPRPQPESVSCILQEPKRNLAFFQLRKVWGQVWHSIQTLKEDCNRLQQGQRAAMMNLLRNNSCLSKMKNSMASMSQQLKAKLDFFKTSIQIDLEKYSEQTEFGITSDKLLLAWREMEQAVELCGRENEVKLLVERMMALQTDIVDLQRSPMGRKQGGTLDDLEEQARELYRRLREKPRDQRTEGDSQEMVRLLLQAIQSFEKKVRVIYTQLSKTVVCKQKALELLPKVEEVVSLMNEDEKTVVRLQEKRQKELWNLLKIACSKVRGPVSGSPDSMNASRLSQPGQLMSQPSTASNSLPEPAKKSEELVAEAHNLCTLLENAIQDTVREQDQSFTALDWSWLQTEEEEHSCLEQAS
Experiment: IKK-2 Resin Enzyme Assay (Human IKK-2 Enzyme Assay)
Type: biochemical
Conditions: human IKK-2, resin enzyme assay; read-out: IC50 (μM) hIKK-2
Outline: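 C-terminally FLAG-tagged human IKK-2 homodimer, baculovirus-expressed in insect cells and anti-FLAG purified. Reaction mix: 5 μM biotinylated IκBα peptide (Ser32/Ser36 region), 1 μM ATP with [γ-33P]ATP, 2 mM MgCl2, 2 mM MnCl2, 10 mM NaF, 1 mM DTT, 25 mM HEPES pH 7.6. Incubated 30 min at 25 °C; IC50 derived.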

`CSc1cccc(-c2ccc(-n3cc(C(N)=O)c(NC(N)=O)n3)cc2)c1` [Example 118] and `NC(=O)Nc1nn(-c2ccc(-c3cccc(C(F)(F)F)c3)cc2)cc1C(N)=O` [Example 131] are within 1.5-fold of each other in IC50: 3.07 µM for the first, 3.15 µM for the second.

Going from `Cc1cc(-n2cc(NC(N)=O)c(C(N)=O)n2)ccn1` [Example 322, 4-[(aminocarbonyl)amino]-1-(2-methylpyridin-4-yl)-1H-pyrazole-3-carboxamide] to `Cc1ccc(-n2cc(NC(N)=O)c(C(N)=O)n2)cc1` [Example 18, 4-[(aminocarbonyl)amino]-1-(4-methylphenyl)-1H-pyrazole-3-carboxamide], the IC50 falls from 2.19 µM to 0.3 µM (7.3-fold).

Going from `NC(=O)Nc1cn(-c2ccc(-c3ccc(CN4CCOCC4)cc3)cc2)nc1C(N)=O` [Example 34, 4-[(aminocarbonyl)amino]-1-[4′-(morpholin-4-ylmethyl)-1,1′-biphenyl-4-yl]-1H-pyrazole-3-carboxamide] to `NC(=O)Nc1cn(-c2ccc(-c3ccc(CO)cc3)cc2)nc1C(N)=O` [Example 38, 4-[(aminocarbonyl)amino]-1-[4′-(hydroxymethyl)-1,1′-biphenyl-4-yl]-1H-pyrazole-3-carboxamide], the IC50 falls from 4.21 µM to 0.83 µM (5.1-fold). The second is the more potent here.

Going from `NC(=O)Nc1cn(-c2ccc(-c3ccccc3O)cc2)nc1C(N)=O` [Example 23, 4-[(aminocarbonyl)amino]-1-(2′-hydroxy-1,1′-biphenyl-4-yl)-1H-pyrazole-3-carboxamide] to `NC(=O)Nc1cn(-c2ccc(Sc3ccccc3O)cc2)nc1C(N)=O` [Example 208, 1-(1-(4-(2-hydroxyphenylthio)phenyl)-3-carbamoyl-1H-pyrazol-4-yl)urea], the IC50 falls from 1.64 µM to 0.328 µM (5-fold).

Going from `NC(=O)Nc1cn(-c2ccc(Cl)cc2)nc1C(N)=O` [Example 214, 4-[(aminocarbonyl)amino]-1-(4-chlorophenyl)-1H-pyrazole-3-carboxamide] to `NC(=O)Nc1cn(-c2ccc([S+]([O-])c3ccccn3)cc2)nc1C(N)=O` (stereo not shown) [Example 284, 1-(3-carbamoyl-1-(4-(pyridin-2-ylsulfinyl)phenyl)-1H-pyrazol-4-yl)urea], the IC50 rises from 0.382 µM to 0.986 µM (2.6-fold).

Going from `Cc1cnccc1-c1cccc(-n2cc(NC(N)=O)c(C(N)=O)n2)c1` [Example 69, 4-[(aminocarbonyl)amino]-1-[3-(3-methylpyridin-4-yl)phenyl]-1H-pyrazole-3-carboxamide] to `Cc1cc(-c2cccc(-n3cc(NC(N)=O)c(C(N)=O)n3)c2)ccc1F` [Example 346, 4-[(aminocarbonyl)amino]-1-(4′-fluoro-3′-methyl-1,1′-biphenyl-3-yl)-1H-pyrazole-3-carboxamide], the IC50 rises from 0.65 µM to greater than 20 µM. The first is the more potent here.

First: CC(C)(C)c1ccc(-c2cccc(-n3cc(NC(N)=O)c(C(N)=O)n3)c2)cc1 [Example 362, 4-[(aminocarbonyl)amino]-1-(4′-tert-butyl-1,1′-biphenyl-3-yl)-1H-pyrazole-3-carboxamide]
Second: CC(C)(C)NC(=O)c1cccc(-c2ccc(-n3cc(NC(N)=O)c(C(N)=O)n3)cc2)c1 [Example 31, 4-[(aminocarbonyl)amino]-1-{3′-[(tert-butylamino)carbonyl]-1,1′-biphenyl-4-yl}-1H-pyrazole-3-carboxamide]
The IC50 of the first is higher: greater than 20 µM for the first, 4.79 µM for the second. The second is the more potent here.

Going from `N#CCOc1ccccc1-c1ccc(-n2cc(NC(N)=O)c(C(N)=O)n2)cc1` [Example 167, 4-[(aminocarbonyl)amino]-1-[2′-(cyanomethoxy)-1,1′-biphenyl-4-yl]-1H-pyrazole-3-carboxamide] to `N#CCOc1ccccc1-c1cccc(-n2cc(NC(N)=O)c(C(N)=O)n2)c1` [Example 176, 4-[(aminocarbonyl)amino]-1-[2′-(cyanomethoxy)-1,1′-biphenyl-3-yl]-1H-pyrazole-3-carboxamide], the IC50 falls from 0.5 µM to 0.18 µM (2.8-fold). The second is the more potent here.

Compared with `NC(=O)Nc1cn(-c2ccc([S+]([O-])c3cccc(F)c3)cc2)nc1C(N)=O` (stereo not shown) [Example 201, 1-(1-(4-(3-fluorophenylsulfinyl)phenyl)-3-carbamoyl-1H-pyrazol-4-yl)urea], `NC(=O)Nc1cn(-c2cccc([S+]([O-])c3ccccc3F)c2)nc1C(N)=O` (stereo not shown) [Example 202, 1-(1-(3-(2-fluorophenylsulfinyl)phenyl)-3-carbamoyl-1H-pyrazol-4-yl)urea] is 11-fold higher in IC50: 0.532 µM for the first, 5.97 µM for the second. The first is the more potent here.

Going from `CC(C)(C)c1ccc(-c2ccc(-n3cc(C(N)=O)c(NC(N)=O)n3)cc2)cc1` [Example 126] to `CC(C)NC(=O)c1cccc(-c2ccc(-n3cc(NC(N)=O)c(C(N)=O)n3)cc2)c1` [Example 148, 4-[(aminocarbonyl)amino]-1-{3′-[(isopropylamino)carbonyl]-1,1′-biphenyl-4-yl}-1H-pyrazole-3-carboxamide], the IC50 falls from greater than 20 µM to 7.14 µM. The second is the more potent here.

Going from `CCOc1cc(-n2cc(NC(N)=O)c(C(N)=O)n2)ccc1-c1ccc(O)cc1` [Example 274, 4-[(aminocarbonyl)amino]-1-(2-ethoxy-4′-hydroxy-1,1′-biphenyl-4-yl)-1H-pyrazole-3-carboxamide] to `N#CCOc1cccc(-c2ccc(-n3cc(NC(N)=O)c(C(N)=O)n3)cc2Cl)c1` [Example 220, 4-[(aminocarbonyl)amino]-1-[2-chloro-3′-(cyanomethoxy)-1,1′-biphenyl-4-yl]-1H-pyrazole-3-carboxamide], the IC50 falls from greater than 20 µM to 1.57 µM.

First: NC(=O)Nc1cn(-c2ccc(S(=O)(=O)c3ccccn3)cc2)nc1C(N)=O [Example 286, 1-(3-carbamoyl-1-(4-(pyridin-2-ylsulfonyl)phenyl)-1H-pyrazol-4-yl)urea]
Second: NC(=O)Nc1cn(-c2cccc(-c3cccc(N)c3)c2)nc1C(N)=O [Example 50, 1-(3′-amino-1,1′-biphenyl-3-yl)-4-[(aminocarbonyl)amino]-1H-pyrazole-3-carboxamide]
The IC50 of the first is 3.1-fold lower: 0.663 µM for the first, 2.08 µM for the second.

Going from `NC(=O)Nc1cn(-c2ccc(Sc3ccc(F)cc3)cc2Cl)nc1C(N)=O` [Example 376, 1-(1-(4-(4-fluorophenylthio)-2-chlorophenyl)-3-carbamoyl-1H-pyrazol-4-yl)urea] to `NC(=O)Nc1cn(-c2cccc(-c3ccsc3)c2)nc1C(N)=O` [Example 43, 4-[(aminocarbonyl)amino]-1-(3-thien-3-ylphenyl)-1H-pyrazole-3-carboxamide], the IC50 rises from 0.31 µM to 8.54 µM (28-fold).

Going from `CN1CCOc2cc(-c3cccc(-n4cc(NC(N)=O)c(C(N)=O)n4)c3)ccc21` [Example 64, 4-[(aminocarbonyl)amino]-1-[3-(4-methyl-3,4-dihydro-2H-1,4-benzoxazin-7-yl)phenyl]-1H-pyrazole-3-carboxamide] to `CC(=O)c1cccc(-c2cccc(-n3cc(NC(N)=O)c(C(N)=O)n3)c2)c1` [Example 351, 1-(3′-acetyl-1,1′-biphenyl-3-yl)-4-[(aminocarbonyl)amino]-1H-pyrazole-3-carboxamide], the IC50 rises from 6.08 µM to greater than 20 µM. The first is the more potent here.

Going from `COC(=O)c1cccc(-n2cc(NC(N)=O)c(C(N)=O)n2)c1` [Example 185, methyl 3-{3-(aminocarbonyl)-4-[(aminocarbonyl)amino]-1H-pyrazol-1-yl}benzoate] to `CCc1cc(Br)ccc1-n1cc(NC(N)=O)c(C(N)=O)n1` [Example 281, 4-[(aminocarbonyl)amino]-1-(4-bromo-2-ethylphenyl)-1H-pyrazole-3-carboxamide], the IC50 rises from 5.88 µM to 10.6 µM (1.8-fold).

Work on `COc1cccc(CNC(=O)c2ccc(-c3ccc(-n4cc(NC(N)=O)c(C(N)=O)n4)cc3)cc2F)c1` [Example 153, 4-[(aminocarbonyl)amino]-1-(3′-fluoro-4′-{[(3-methoxybenzyl)amino]carbonyl}-1,1′-biphenyl-4-yl)-1H-pyrazole-3-carboxamide] yielded an IC50 of 0.32 µM.

From patent US20050197338A1, “Substituted pyrazole urea compounds for the treatment of inflammation” (priority 2003, published 2005)
